This note sets out measurements from article PMC10591299, “Targeting SHP2 with an Active Site Inhibitor Blocks Signaling and Breast Cancer Cell Phenotypes” (ACS Bio & Med Chem Au, 2023).

Assay [1] addresses T1, SHP2 (Homo sapiens, UniProt Q06124).
T1 construct: the GST fusion of the PTP domains of SHP2, SHP1, and PTP1B were produced and purified as reported by us previously; GST; made in house
T1 sequence (Q06124 247-517 limits assumed): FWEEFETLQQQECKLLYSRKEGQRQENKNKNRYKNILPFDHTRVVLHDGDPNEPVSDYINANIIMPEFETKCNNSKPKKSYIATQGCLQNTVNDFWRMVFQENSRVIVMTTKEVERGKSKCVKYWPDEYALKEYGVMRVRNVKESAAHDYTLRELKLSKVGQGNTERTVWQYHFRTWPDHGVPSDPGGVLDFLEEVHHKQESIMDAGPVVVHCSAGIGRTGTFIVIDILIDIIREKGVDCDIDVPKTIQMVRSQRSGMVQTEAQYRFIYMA
The assay can be described thus: PTPase assay, GST-fusion PTP domain of SHP2, DiFMUP substrate. The class given is biochemical. On the procedure: After completion of synthesis, both CNBCA and CNBBA were purified on silica gel, and purity was determined by HPLC. The purified compounds were then tested for their effect on the SHP2 enzyme activity and on the activity of the selected control PTPs (SHP1 and PTP1B) by the phosphotyrosyl phosphatase (PTPase) assay as described previously.[30],[31] First, the GST fusion of the PTP domains of SHP2, SHP1, and PTP1B were produced and purified as reported by us previously.[32] The reactions were performed in a buffer containing 10 mM Tris-HCl (pH 7.2), 100 mM NaCl, 1 mM EDTA, 1 mM dithiothreitol (DTT), and 0.01% Tween-20. Briefly, CNBCA or CNBBA was added first in a serial dilution ranging from 100 μM to 97 nM followed by the enzymes (SHP2, SHP1, or PTP1B) to a final concentration of 1 nM. After 5 min of incubation at room temperature, the reactions were started by adding the artificial substrate DiFMUP (6,8-difluoro-4-methylumbelliferyl phosphate) to a final concentration of 20 μM for SHP2, 35 μM for SHP1, and 10 μM for PTP1B in a reaction volume of 100 μL; variations in DiFMUP concentrations reflect the reported Km values for the respective PTPs.[33] The complete mixture was incubated at 37 °C for 20 min, and fluorescence intensity was measured by the Synergy 4 plate reader at the excitation and emission wavelengths of 360 and 460 nm, respectively. The half inhibitory concentration (IC50) value of each compound was calculated and plotted using Graphpad Prism software.
We used the PTPase assay described previously[30],[31] to evaluate the effect of the newly synthesized compounds on the enzymatic activity of SHP2, SHP1, and PTP1B. The PTP domains of the indicated proteins were prepared as reported by us recently.[32] The artificial PTP substrate DiFMUP (6,8-Difluoro-4-Methylumbelliferyl Phosphate) was purchased from Invitrogen. The purified proteins were dialyzed into a phosphatase buffer containing 10 mM Tris-HCl ([…]), 100 mM NaCl, 1.0 mM EDTA, 1.0 mM dithiothreitol (DTT), and 0.01% Tween-20. Briefly, the PTPase reactions were performed in 100 μL volume containing 1 nM enzyme, inhibitors in serial dilutions (12 nM to 100 μM), and DiFMUP to a final concentration of 20 μM for SHP2, 35 μM for SHP1, and 10 μM for PTP1B. Differences in DiFMUP concentrations reflect the reported Km values for each PTP.[37] The mixtures were incubated at 37 °C for 20 min and transferred to 96 well plates, and the fluorescence intensity was measured by a Synergy 4 plate reader at the excitation and emission wavelengths of 360 and 460 nm, respectively. Graphpad Prism software was used to calculate the IC50 values.

Assay [2] addresses T2, SHP1 (Homo sapiens, UniProt P29350).
T2 construct: The GST fusion PTP domains of SHP1 and PTP1B were expressed and purified in a fashion similar to that of SHP2; GST; made in house
T2 sequence (P29350 244-515 limits assumed): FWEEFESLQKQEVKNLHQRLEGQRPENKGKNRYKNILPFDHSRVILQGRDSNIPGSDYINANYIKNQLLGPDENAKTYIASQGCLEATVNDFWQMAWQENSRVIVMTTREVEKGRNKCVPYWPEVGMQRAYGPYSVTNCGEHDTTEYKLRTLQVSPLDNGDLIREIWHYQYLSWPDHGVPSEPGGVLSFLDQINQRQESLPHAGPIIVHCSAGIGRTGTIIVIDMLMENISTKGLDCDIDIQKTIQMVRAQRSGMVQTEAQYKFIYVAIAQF
The assay can be described thus: PTPase assay, GST-fusion PTP domain of SHP1, DiFMUP substrate. It counts as biochemical. The method, then:
After completion of synthesis, both CNBCA and CNBBA were purified on silica gel, and purity was determined by HPLC. The purified compounds were then tested for their effect on the SHP2 enzyme activity and on the activity of the selected control PTPs (SHP1 and PTP1B) by the phosphotyrosyl phosphatase (PTPase) assay as described previously.[30],[31] First, the GST fusion of the PTP domains of SHP2, SHP1, and PTP1B were produced and purified as reported by us previously.[32] The reactions were performed in a buffer containing 10 mM Tris-HCl (pH 7.2), 100 mM NaCl, 1 mM EDTA, 1 mM dithiothreitol (DTT), and 0.01% Tween-20. […] The complete mixture was incubated at 37 °C for 20 min, and fluorescence intensity was measured by the Synergy 4 plate reader at the excitation and emission wavelengths of 360 and 460 nm, respectively. The half inhibitory concentration (IC50) value of each compound was calculated and plotted using Graphpad Prism software. […]
We used the PTPase assay described previously[30],[31] to evaluate the effect of the newly synthesized compounds on the enzymatic activity of SHP2, SHP1, and PTP1B. […] The mixtures were incubated at 37 °C for 20 min and transferred to 96 well plates, and the fluorescence intensity was measured by a Synergy 4 plate reader at the excitation and emission wavelengths of 360 and 460 nm, respectively. […]

The subject of assay [3] is BT474 cells. The assay can be described thus: Cell growth in 2D culture, BT474. It counts as cell-based. Conditions: BT474, 500 nM, 72 h; vehicle treated cells grew to confluency. The method, then: Since SHP2 is essential for the growth and transformation of BC cells,[8],[9],[11] we determined the effect of SHP2 inhibition with CNBCA in 2D and 3D culture systems. For the effect on cell growth, BC cells (BT474 and MDA-MB468) were seeded in 2D culture and treated with a single concentration of CNBCA (500 nM), the concentration that provided a 50% inhibition of SHP2 mediated signaling in BT474 cells. Images were collected at the start and every 24 h for a total of 72 h (3 days). […] For effect on anchorage independent growth, approximately 10^6 cells were seeded in soft agar as described previously,[24] and treated with CNBCA at 500 nM concentration for 10 days with refeeding and adjustment of compound concentration. […] Finally, the effect of CNBCA on cancer stem cell properties was determined by the suspension assay, in which only cells with stem-like properties only can grow and form mammospheres.[7],[24],[36] Approximately 10^6 cells were seeded in nonadherent 6 cm plates and treated with CNBCA (500 nM) for 10 days with complementation of media and drug concentration.

The term IC50 denotes the midpoint of a concentration-inhibition curve. On to `CCCCCCCCCOc1ccc(-c2ccc(C(=O)O)cc2)cc1CCCC(=O)O` [CNBCA, 3′-(3-carboxypropyl)-4′-(nonyloxy)-[1,1′-biphenyl]-4-carboxylic acid], for which the IC50 in assay [1] (PTP domain, 1 nM enzyme, 20 μM DiFMUP, 37 °C 20 min) was determined as 0.87 µM; in assay [2] (PTP domain, 1 nM enzyme, 35 μM DiFMUP), 34.6 µM. Moreover, the “selectivity ratio SHP2 (reference)” value in assay [1] (SHP2 IC50 as reference) is reported as 1.0. Also, the fold difference in assay [1] (SHP2 IC50 relative to CNBCA) is 1.0 fold. Moreover, the “selectivity ratio SHP1 versus SHP2” value in assay [2] (SHP2 IC50 as reference) worked out at 39.77 fold. Also, the “cell growth in 2D culture” value in assay [3] is “half-confluent”.
